This assay concerns the target T1, Polyphenol oxidase 4 (Agaricus bisporus, UniProt C7FF05).
T1 sequence (C7FF05 whole entry): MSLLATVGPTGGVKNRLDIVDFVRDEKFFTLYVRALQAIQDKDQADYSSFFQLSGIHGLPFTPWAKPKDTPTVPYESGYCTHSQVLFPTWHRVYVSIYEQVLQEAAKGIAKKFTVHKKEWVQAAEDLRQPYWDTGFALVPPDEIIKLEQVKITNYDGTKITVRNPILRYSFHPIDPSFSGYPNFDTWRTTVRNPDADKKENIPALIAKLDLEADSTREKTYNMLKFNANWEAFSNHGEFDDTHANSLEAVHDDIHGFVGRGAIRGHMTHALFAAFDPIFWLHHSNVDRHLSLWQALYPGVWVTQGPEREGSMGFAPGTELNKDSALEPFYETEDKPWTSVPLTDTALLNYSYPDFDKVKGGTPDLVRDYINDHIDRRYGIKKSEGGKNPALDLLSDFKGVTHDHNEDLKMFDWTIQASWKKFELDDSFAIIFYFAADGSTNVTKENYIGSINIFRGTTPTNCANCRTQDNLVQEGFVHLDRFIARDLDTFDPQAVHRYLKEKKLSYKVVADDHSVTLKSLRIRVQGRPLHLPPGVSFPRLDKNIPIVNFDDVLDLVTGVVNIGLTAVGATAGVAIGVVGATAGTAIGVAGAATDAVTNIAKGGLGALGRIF
Put plainly: Inhibition of mushroom tyrosinase.

In general, IC50 refers to the point on the concentration scale where inhibition reaches its midpoint. Take `COc1c(O[C@@H]2O[C@H](CO)[C@@H](O)[C@H](O)[C@H]2O)cc2occ(-c3ccc(O)cc3)c(=O)c2c1O` [CHEBI:9428]: the IC50 amounted to 2.6 nM. In turn, `COc1c(O)cc2occ(-c3ccc(O)cc3)c(=O)c2c1O` [Tectorigenin] yielded an IC50 of 1.4 nM.
